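Cultured in 96-well plates, cells were exposed to test compound for 48 hours across five concentrations. GI50 is the concentration that inhibits growth by half. TGI: concentration producing complete growth inhibition.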
system: M14 melanoma; experiment: inhibition of tumour cell growth, NCI panel, 48 h

Compared with `Cn1cnnc1[S-].[Au+].c1ccc([PH+](c2ccccc2)c2ccccc2)cc1`, `Cc1ccc(C2CC(c3ccc(Nc4ccnc5cc(Cl)ccc45)cc3)=NN2C=O)cc1` (stereo unspecified) is 4.9-fold higher in GI50: 1400 nM for the first, 6880 nM for the second.

`COCC(C(=O)OC1C/C=C/C=C/C(=O)OC(C(C)C(O)C(C)CCC(OC(=O)C(C)N(C)C)C(C)C(OC(C)=O)C(C)/C=C/N(C)C=O)C/C=C/C(OC)CC(C)C/C=C(\C)C(OC)CCC(C)C(O)C1C)N(C)C` (stereo unspecified) showed a GI50 of under 0.1 nM.

Compared with `Cn1cnnc1[S-].[Au+].c1ccc([PH+](c2ccccc2)c2ccccc2)cc1`, `Cc1ccc(C2CC(c3ccc(Nc4ccnc5cc(Cl)ccc45)cc3)=NN2C=O)cc1` (stereo unspecified) is higher in TGI: 2990 nM for the first, over 100000 nM for the second.

Work on `COCC(C(=O)OC1C/C=C/C=C/C(=O)OC(C(C)C(O)C(C)CCC(OC(=O)C(C)N(C)C)C(C)C(OC(C)=O)C(C)/C=C/N(C)C=O)C/C=C/C(OC)CC(C)C/C=C(\C)C(OC)CCC(C)C(O)C1C)N(C)C` (stereo unspecified) yielded a TGI of 6.97 nM.

system: KM12 colon; experiment: inhibition of tumour cell growth, NCI panel, 48 h

Going from `Cn1cnnc1[S-].[Au+].c1ccc([PH+](c2ccccc2)c2ccccc2)cc1` to `Cc1ccc(C2CC(c3ccc(Nc4ccnc5cc(Cl)ccc45)cc3)=NN2C=O)cc1` (stereo unspecified), the GI50 rises from 1710 nM to 6640 nM (3.9-fold).

First: CCc1ccc2c(c1)N(CCO)C1=C(C(=O)OC1)C2c1cc(OC)c(OC)c(OC)c1 (stereo unspecified)
Second: COCC(C(=O)OC1C/C=C/C=C/C(=O)OC(C(C)C(O)C(C)CCC(OC(=O)C(C)N(C)C)C(C)C(OC(C)=O)C(C)/C=C/N(C)C=O)C/C=C/C(OC)CC(C)C/C=C(\C)C(OC)CCC(C)C(O)C1C)N(C)C (stereo unspecified)
The GI50 of the first is higher: 163 nM for the first, under 0.1 nM for the second.

First: Cn1cnnc1[S-].[Au+].c1ccc([PH+](c2ccccc2)c2ccccc2)cc1
Second: Cc1ccc(C2CC(c3ccc(Nc4ccnc5cc(Cl)ccc45)cc3)=NN2C=O)cc1 (stereo unspecified)
The TGI of the first is lower: 3220 nM for the first, over 100000 nM for the second.

Going from `CCc1ccc2c(c1)N(CCO)C1=C(C(=O)OC1)C2c1cc(OC)c(OC)c(OC)c1` (stereo unspecified) to `COCC(C(=O)OC1C/C=C/C=C/C(=O)OC(C(C)C(O)C(C)CCC(OC(=O)C(C)N(C)C)C(C)C(OC(C)=O)C(C)/C=C/N(C)C=O)C/C=C/C(OC)CC(C)C/C=C(\C)C(OC)CCC(C)C(O)C1C)N(C)C` (stereo unspecified), the TGI falls from 987 nM to under 0.1 nM.

system: UACC-62 melanoma; experiment: inhibition of tumour cell growth, NCI panel, 48 h

Going from `Cn1cnnc1[S-].[Au+].c1ccc([PH+](c2ccccc2)c2ccccc2)cc1` to `Cc1ccc(C2CC(c3ccc(Nc4ccnc5cc(Cl)ccc45)cc3)=NN2C=O)cc1` (stereo unspecified), the GI50 rises from 1260 nM to 4130 nM (3.3-fold).

First: CCc1ccc2c(c1)N(CCO)C1=C(C(=O)OC1)C2c1cc(OC)c(OC)c(OC)c1 (stereo unspecified)
Second: COCC(C(=O)OC1C/C=C/C=C/C(=O)OC(C(C)C(O)C(C)CCC(OC(=O)C(C)N(C)C)C(C)C(OC(C)=O)C(C)/C=C/N(C)C=O)C/C=C/C(OC)CC(C)C/C=C(\C)C(OC)CCC(C)C(O)C1C)N(C)C (stereo unspecified)
The GI50 of the first is higher: 182 nM for the first, under 0.1 nM for the second.

Going from `Cn1cnnc1[S-].[Au+].c1ccc([PH+](c2ccccc2)c2ccccc2)cc1` to `Cc1ccc(C2CC(c3ccc(Nc4ccnc5cc(Cl)ccc45)cc3)=NN2C=O)cc1` (stereo unspecified), the TGI rises from 2550 nM to over 100000 nM.

Compared with `CCc1ccc2c(c1)N(CCO)C1=C(C(=O)OC1)C2c1cc(OC)c(OC)c(OC)c1` (stereo unspecified), `COCC(C(=O)OC1C/C=C/C=C/C(=O)OC(C(C)C(O)C(C)CCC(OC(=O)C(C)N(C)C)C(C)C(OC(C)=O)C(C)/C=C/N(C)C=O)C/C=C/C(OC)CC(C)C/C=C(\C)C(OC)CCC(C)C(O)C1C)N(C)C` (stereo unspecified) is lower in TGI: over 50000 nM for the first, 0.461 nM for the second.

system: PC-3 prostate; experiment: inhibition of tumour cell growth, NCI panel, 48 h

Compared with `Cn1cnnc1[S-].[Au+].c1ccc([PH+](c2ccccc2)c2ccccc2)cc1`, `Cc1ccc(C2CC(c3ccc(Nc4ccnc5cc(Cl)ccc45)cc3)=NN2C=O)cc1` (stereo unspecified) is 3-fold higher in GI50: 1520 nM for the first, 4610 nM for the second.

Going from `CCc1ccc2c(c1)N(CCO)C1=C(C(=O)OC1)C2c1cc(OC)c(OC)c(OC)c1` (stereo unspecified) to `COCC(C(=O)OC1C/C=C/C=C/C(=O)OC(C(C)C(O)C(C)CCC(OC(=O)C(C)N(C)C)C(C)C(OC(C)=O)C(C)/C=C/N(C)C=O)C/C=C/C(OC)CC(C)C/C=C(\C)C(OC)CCC(C)C(O)C1C)N(C)C` (stereo unspecified), the GI50 falls from 196 nM to under 0.1 nM.

First: Cn1cnnc1[S-].[Au+].c1ccc([PH+](c2ccccc2)c2ccccc2)cc1
Second: Cc1ccc(C2CC(c3ccc(Nc4ccnc5cc(Cl)ccc45)cc3)=NN2C=O)cc1 (stereo unspecified)
The TGI of the first is lower: 3020 nM for the first, over 100000 nM for the second.

`CCc1ccc2c(c1)N(CCO)C1=C(C(=O)OC1)C2c1cc(OC)c(OC)c(OC)c1` (stereo unspecified) and `COCC(C(=O)OC1C/C=C/C=C/C(=O)OC(C(C)C(O)C(C)CCC(OC(=O)C(C)N(C)C)C(C)C(OC(C)=O)C(C)/C=C/N(C)C=O)C/C=C/C(OC)CC(C)C/C=C(\C)C(OC)CCC(C)C(O)C1C)N(C)C` (stereo unspecified) cannot be ordered by TGI: over 50000 nM for the first, over 1000 nM for the second.

system: OVCAR-3 ovarian; experiment: inhibition of tumour cell growth, NCI panel, 48 h

Compared with `Cn1cnnc1[S-].[Au+].c1ccc([PH+](c2ccccc2)c2ccccc2)cc1`, `Cc1ccc(C2CC(c3ccc(Nc4ccnc5cc(Cl)ccc45)cc3)=NN2C=O)cc1` (stereo unspecified) is 3.8-fold higher in GI50: 1790 nM for the first, 6820 nM for the second.

First: CCc1ccc2c(c1)N(CCO)C1=C(C(=O)OC1)C2c1cc(OC)c(OC)c(OC)c1 (stereo unspecified)
Second: COCC(C(=O)OC1C/C=C/C=C/C(=O)OC(C(C)C(O)C(C)CCC(OC(=O)C(C)N(C)C)C(C)C(OC(C)=O)C(C)/C=C/N(C)C=O)C/C=C/C(OC)CC(C)C/C=C(\C)C(OC)CCC(C)C(O)C1C)N(C)C (stereo unspecified)
The GI50 of the first is higher: 112 nM for the first, under 0.1 nM for the second.

Compared with `Cn1cnnc1[S-].[Au+].c1ccc([PH+](c2ccccc2)c2ccccc2)cc1`, `Cc1ccc(C2CC(c3ccc(Nc4ccnc5cc(Cl)ccc45)cc3)=NN2C=O)cc1` (stereo unspecified) is higher in TGI: 3180 nM for the first, over 100000 nM for the second.

First: CCc1ccc2c(c1)N(CCO)C1=C(C(=O)OC1)C2c1cc(OC)c(OC)c(OC)c1 (stereo unspecified)
Second: COCC(C(=O)OC1C/C=C/C=C/C(=O)OC(C(C)C(O)C(C)CCC(OC(=O)C(C)N(C)C)C(C)C(OC(C)=O)C(C)/C=C/N(C)C=O)C/C=C/C(OC)CC(C)C/C=C(\C)C(OC)CCC(C)C(O)C1C)N(C)C (stereo unspecified)
The TGI of the first is 140-fold higher: 274 nM for the first, 1.91 nM for the second.

system: OVCAR-5 ovarian; experiment: inhibition of tumour cell growth, NCI panel, 48 h

First: Cn1cnnc1[S-].[Au+].c1ccc([PH+](c2ccccc2)c2ccccc2)cc1
Second: Cc1ccc(C2CC(c3ccc(Nc4ccnc5cc(Cl)ccc45)cc3)=NN2C=O)cc1 (stereo unspecified)
The GI50 of the first is lower: 1880 nM for the first, over 100000 nM for the second.

First: CCc1ccc2c(c1)N(CCO)C1=C(C(=O)OC1)C2c1cc(OC)c(OC)c(OC)c1 (stereo unspecified)
Second: COCC(C(=O)OC1C/C=C/C=C/C(=O)OC(C(C)C(O)C(C)CCC(OC(=O)C(C)N(C)C)C(C)C(OC(C)=O)C(C)/C=C/N(C)C=O)C/C=C/C(OC)CC(C)C/C=C(\C)C(OC)CCC(C)C(O)C1C)N(C)C (stereo unspecified)
The GI50 of the first is higher: 422 nM for the first, under 0.1 nM for the second.

Compared with `Cn1cnnc1[S-].[Au+].c1ccc([PH+](c2ccccc2)c2ccccc2)cc1`, `Cc1ccc(C2CC(c3ccc(Nc4ccnc5cc(Cl)ccc45)cc3)=NN2C=O)cc1` (stereo unspecified) is higher in TGI: 3490 nM for the first, over 100000 nM for the second.

First: CCc1ccc2c(c1)N(CCO)C1=C(C(=O)OC1)C2c1cc(OC)c(OC)c(OC)c1 (stereo unspecified)
Second: COCC(C(=O)OC1C/C=C/C=C/C(=O)OC(C(C)C(O)C(C)CCC(OC(=O)C(C)N(C)C)C(C)C(OC(C)=O)C(C)/C=C/N(C)C=O)C/C=C/C(OC)CC(C)C/C=C(\C)C(OC)CCC(C)C(O)C1C)N(C)C (stereo unspecified)
The TGI of the first is higher: over 50000 nM for the first, 162 nM for the second.

system: RPMI-8226 leukemia; experiment: inhibition of tumour cell growth, NCI panel, 48 h

Compared with `Cn1cnnc1[S-].[Au+].c1ccc([PH+](c2ccccc2)c2ccccc2)cc1`, `CCc1ccc2c(c1)N(CCO)C1=C(C(=O)OC1)C2c1cc(OC)c(OC)c(OC)c1` (stereo unspecified) is 8.4-fold lower in GI50: 1690 nM for the first, 201 nM for the second.

First: Cn1cnnc1[S-].[Au+].c1ccc([PH+](c2ccccc2)c2ccccc2)cc1
Second: CCc1ccc2c(c1)N(CCO)C1=C(C(=O)OC1)C2c1cc(OC)c(OC)c(OC)c1 (stereo unspecified)
The TGI of the first is 7.8-fold lower: 5390 nM for the first, 42000 nM for the second.

`Nc1nccc2c([N+](=O)[O-])cccc12` was tested, and the GI50 was 40.4 µg/mL.
